According to article PMC11840605, “Crystallographic and Thermodynamic Evidence of Negative Coupling in the Flavin-Dependent Tryptophan Halogenases AbeH and BorH” (ACS Omega, 2025):
“Also recorded” adds a separate entry of the source.

Legend:
[1] = target: AbeH/Trp (uncultured bacterium, UniProt F6LWA5); test: Isothermal titration calorimetry, FAD into AbeH preincubated with Trp; assay type: binding, uncultured soil actinomycetes; parameters: n (ITC, Table S3) / DH (ΔH, ITC, Table S3) / -TDS (-TΔS, ITC, Table S3) / DG (ΔG, ITC, Table S3): unit of the concentration uncertain
Experimental: ITC experiments were performed using a VP-ITC isothermal titration calorimeter (MicroCal) in 20 mM HEPES pH 7.5, 350 mM NaCl, 1 mM ethylenediamine tetraacetic acid (EDTA) and 15% (v/v) glycerol. Solutions of AbeH, BorH, FAD (Chem-Implex), and Trp (Acros Organics) were prepared in the same buffer and degassed under vacuum at 30 °C for 20 min before loading in the syringe or cell. To analyze formation of binary complexes, AbeH or BorH was placed inside the cell, and ligand (FAD or Trp) was injected. For ternary complex titration, one ligand was preincubated with the macromolecule for 30 min at 30 °C to form binary complexes of AbeH/FAD, AbeH/Trp, BorH/FAD, and BorH/Trp before titrating with the second ligand. To test FADH2 binding to AbeH and BorH, FAD was reduced to FADH2 using sodium dithionite and stored under N2. Formation of FADH2 by sodium dithionite was verified using absorbance and fluorescence spectrophotometry.
ITC experiments were performed with reference power set to 10 μcal/s and Milli-Q water in the reference cell. All experiments were done with a pretitration delay of 20 min, a 5 min interval between injections, and a filter period of 2 s in high feedback gain mode. All experiments were performed at 310 rpm to mix the components in cell and titrant. All other VP-ITC instrumental parameters were set to default settings. Heats of dilution for all titrants were measured by titrating ligand into buffer for binary complex titrations, and by titrating ligand into a solution containing the other ligand but no protein for ternary complex titration.
190 μM FAD (2 μL/1 and 15 μL/29 injections) into 28 μM AbeH preincubated with 16 mM Trp (Figure 4C)
190 μM FAD (2 μL/1 and 15 μL/29 injections) into 28 μM AbeH preincubated with 28 mM Trp (Figure S8)
Titrations were analyzed by manually integrating each injection, subtracting the heat of dilution, and carrying out nonlinear least-squares fit of the calorimetric binding data to a one-site model using Origin 7.0 (Origin Lab). Trp binding experiments were subtracted by point-by-point heat of dilution, and FAD and FADH2 binding experiments were subtracted using the mean heat of the last three injections. For the Trp binding data, n was fixed to 1 based on expected stoichiometry of 1:1 based on FDH crystal structures and as proposed for lower c-value titrations in the literature.[23],[25],[82] The other parameters were not constrained during fitting.

[2] = target: AbeH (uncultured bacterium, UniProt F6LWA5); test: FAD fluorescence quenching titration with AbeH; assay type: binding, uncultured soil actinomycetes
Experimental: Quenching of FAD fluorescence quenching upon binding to AbeH was measured in the absence and presence of Trp in 20 mM Tris-HCl pH 8.0 and 100 mM NaCl using a Quantmaster 40 fluorimeter (Photon Technologies International). Trp and FAD solutions were prepared in 20 mM Tris-HCl pH 8, and concentrations were determined by absorbance at 280 and 450 nm, respectively. FAD fluorescence was measured using excitation at 450 nm (4 nm slit opening) and emission set at 525 nm (6 nm slit opening) using a fluorescence cuvette to collect 50 scans, which were averaged later during data processing in Microsoft Excel. […] Raw fluorescence intensities were corrected for the buffer, Trp, and AbeH background contributions. Quenched fluorescence intensity was plotted vs AbeH concentration and fit to eq 1 using GraphPad Prism 8.0 by nonlinear regression analysis. In eq 1, F = fractional saturation, ΔF = fluorescence quenching upon AbeH/FAD complex formation (calculated from the difference of FAD fluorescence intensity at different AbeH concentration), ΔFmax = maximum fluorescence change obtained from fit, [AbeHFAD] = FAD-bound AbeH, [AbeH]T = Total AbeH concentration, [FAD]T = Total FAD concentration, KD = equilibrium dissociation constant. […]
A. Fluorescence quenching observed from binding of Apo-AbeH ([…]) to […] FAD; […]

[3] = cell AbeH/Trp (16 (unit uncertain))
[4] = cell AbeH/Trp (28 (unit uncertain))

AbeH/Trp, sequence (F6LWA5 entry or part of it): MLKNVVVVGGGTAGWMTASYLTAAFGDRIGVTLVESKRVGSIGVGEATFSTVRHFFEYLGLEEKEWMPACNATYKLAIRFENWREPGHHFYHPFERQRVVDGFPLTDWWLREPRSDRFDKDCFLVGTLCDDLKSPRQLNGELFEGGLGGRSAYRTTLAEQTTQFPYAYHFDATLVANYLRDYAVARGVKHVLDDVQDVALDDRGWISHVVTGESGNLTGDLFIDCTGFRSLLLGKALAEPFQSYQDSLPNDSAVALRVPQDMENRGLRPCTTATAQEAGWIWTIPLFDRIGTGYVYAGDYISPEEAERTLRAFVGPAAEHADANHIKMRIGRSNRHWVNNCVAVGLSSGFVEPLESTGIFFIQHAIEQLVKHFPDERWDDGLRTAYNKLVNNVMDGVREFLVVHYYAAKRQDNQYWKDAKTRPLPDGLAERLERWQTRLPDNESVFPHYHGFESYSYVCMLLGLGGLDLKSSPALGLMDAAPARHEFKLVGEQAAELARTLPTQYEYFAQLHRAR
AbeH, sequence (F6LWA5 entry or part of it): as above

Cc1cc2nc3c(=O)[nH]c(=O)nc-3n(C[C@H](O)[C@H](O)[C@H](O)COP(=O)(O)OP(=O)(O)OC[C@H]3O[C@@H](n4cnc5c(N)ncnc54)[C@H](O)[C@@H]3O)c2cc1C [FAD]
Kd ([1]; Apparent KD, FAD binding to AbeH/Trp, ITC, AbeH preincubated with Trp, depends on the Trp:AbeH molar ratio): 6300 ± 2400 nM | Heat of binding, titration of FAD into AbeH/Trp, in words ([1]; ITC): endothermic; also recorded: heat being absorbed rather than released | Kd ([1]; KD, FAD into AbeH/Trp, ITC, experiment of Figure 4C, 28 μM AbeH preincubated with 16 mM Trp): 2100 nM | -TDS (-TΔS, ITC, Table S3) [1, 3]: -15.1 kcal/mol | DG (ΔG, ITC, Table S3) [1, 3]: -7.8 kcal/mol | DH (ΔH, ITC, Table S3) [1, 3]: 7.3 ± 0.4 kcal/mol | n (ITC, Table S3) [1, 3]: 0.58 ± 0.02 | -TDS (-TΔS, ITC, Table S3) [1, 4]: -13.1 kcal/mol | DG (ΔG, ITC, Table S3) [1, 4]: -7.2 kcal/mol | DH (ΔH, ITC, Table S3) [1, 4]: 5.9 ± 1.6 kcal/mol | n (ITC, Table S3) [1, 4]: 0.6 ± 0.1 | Kd [2]: 1600 ± 400 nM
